In ChEMBL document CHEMBL3991601, “The target landscape of clinical kinase drugs” (Science, 2017):
Active and inactive are the calls of the source.

Legend:
[1] = target: Protein kinase C theta type (Homo sapiens, UniProt Q04759)
[2] = target: T1, Signal recognition particle receptor subunit alpha (Homo sapiens, UniProt P08240)
T1 sequence (P08240 whole entry): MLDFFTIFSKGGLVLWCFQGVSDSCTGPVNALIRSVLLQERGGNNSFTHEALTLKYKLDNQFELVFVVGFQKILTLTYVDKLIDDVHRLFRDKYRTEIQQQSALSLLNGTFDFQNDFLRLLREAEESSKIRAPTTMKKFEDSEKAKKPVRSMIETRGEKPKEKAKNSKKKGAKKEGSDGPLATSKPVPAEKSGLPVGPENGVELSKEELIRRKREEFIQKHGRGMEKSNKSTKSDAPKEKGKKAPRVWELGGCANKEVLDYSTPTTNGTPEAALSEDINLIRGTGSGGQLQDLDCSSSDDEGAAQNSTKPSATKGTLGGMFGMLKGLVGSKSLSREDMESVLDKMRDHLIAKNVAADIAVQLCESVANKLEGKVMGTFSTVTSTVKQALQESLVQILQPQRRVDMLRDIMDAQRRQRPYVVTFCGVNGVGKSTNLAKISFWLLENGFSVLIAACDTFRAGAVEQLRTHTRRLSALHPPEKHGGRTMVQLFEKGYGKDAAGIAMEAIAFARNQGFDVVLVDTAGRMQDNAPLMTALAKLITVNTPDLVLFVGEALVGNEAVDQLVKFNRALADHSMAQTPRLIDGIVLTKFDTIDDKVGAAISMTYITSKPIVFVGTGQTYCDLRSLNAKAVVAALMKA

[3] = target: T2, Mitogen-activated protein kinase kinase kinase 6 (Homo sapiens, UniProt O95382)
T2 sequence (O95382 whole entry): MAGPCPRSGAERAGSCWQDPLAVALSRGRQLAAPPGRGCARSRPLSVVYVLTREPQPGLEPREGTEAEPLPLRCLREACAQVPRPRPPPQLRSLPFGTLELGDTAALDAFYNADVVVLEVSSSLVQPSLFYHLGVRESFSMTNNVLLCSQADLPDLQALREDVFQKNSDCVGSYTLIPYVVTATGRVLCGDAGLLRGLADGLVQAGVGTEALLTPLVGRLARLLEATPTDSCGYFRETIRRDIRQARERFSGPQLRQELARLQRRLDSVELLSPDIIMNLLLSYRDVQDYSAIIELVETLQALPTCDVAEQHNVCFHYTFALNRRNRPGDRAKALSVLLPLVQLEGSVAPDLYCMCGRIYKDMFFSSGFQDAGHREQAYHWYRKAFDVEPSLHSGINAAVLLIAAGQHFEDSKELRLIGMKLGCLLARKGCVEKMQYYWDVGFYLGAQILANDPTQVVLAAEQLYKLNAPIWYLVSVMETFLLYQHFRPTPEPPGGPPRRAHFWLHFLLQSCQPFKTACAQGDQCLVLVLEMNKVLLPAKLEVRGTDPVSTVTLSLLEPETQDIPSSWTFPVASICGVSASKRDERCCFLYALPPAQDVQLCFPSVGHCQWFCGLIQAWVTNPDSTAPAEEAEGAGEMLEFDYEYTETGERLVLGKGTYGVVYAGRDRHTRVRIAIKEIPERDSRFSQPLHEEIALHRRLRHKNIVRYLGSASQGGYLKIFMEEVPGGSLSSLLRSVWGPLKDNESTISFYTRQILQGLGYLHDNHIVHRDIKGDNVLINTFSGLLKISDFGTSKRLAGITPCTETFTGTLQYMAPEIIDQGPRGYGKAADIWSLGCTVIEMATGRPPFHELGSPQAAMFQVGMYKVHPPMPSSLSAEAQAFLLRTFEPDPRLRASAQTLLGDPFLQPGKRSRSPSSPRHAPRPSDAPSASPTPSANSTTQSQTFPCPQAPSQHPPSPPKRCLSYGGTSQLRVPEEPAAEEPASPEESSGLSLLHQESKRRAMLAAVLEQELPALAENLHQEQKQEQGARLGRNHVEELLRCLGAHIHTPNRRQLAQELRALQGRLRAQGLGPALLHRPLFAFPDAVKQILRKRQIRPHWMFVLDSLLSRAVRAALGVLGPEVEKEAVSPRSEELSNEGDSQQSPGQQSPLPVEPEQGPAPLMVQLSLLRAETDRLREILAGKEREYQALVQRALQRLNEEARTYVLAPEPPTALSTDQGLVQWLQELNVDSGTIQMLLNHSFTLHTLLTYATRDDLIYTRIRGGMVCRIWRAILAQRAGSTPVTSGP

[4] = target: Phosphatidylethanolamine-binding protein 1 (Homo sapiens, UniProt P30086)
Sequence of Phosphatidylethanolamine-binding protein 1 (P30086 whole entry): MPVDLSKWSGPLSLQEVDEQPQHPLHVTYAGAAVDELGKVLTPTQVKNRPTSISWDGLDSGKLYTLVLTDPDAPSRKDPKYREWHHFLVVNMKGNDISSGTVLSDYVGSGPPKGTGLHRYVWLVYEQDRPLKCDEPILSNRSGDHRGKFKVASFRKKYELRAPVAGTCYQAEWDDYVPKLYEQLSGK

[5] = target: T3, Mitogen-activated protein kinase kinase kinase 3 (Homo sapiens, UniProt Q99759)
T3 sequence (Q99759 whole entry): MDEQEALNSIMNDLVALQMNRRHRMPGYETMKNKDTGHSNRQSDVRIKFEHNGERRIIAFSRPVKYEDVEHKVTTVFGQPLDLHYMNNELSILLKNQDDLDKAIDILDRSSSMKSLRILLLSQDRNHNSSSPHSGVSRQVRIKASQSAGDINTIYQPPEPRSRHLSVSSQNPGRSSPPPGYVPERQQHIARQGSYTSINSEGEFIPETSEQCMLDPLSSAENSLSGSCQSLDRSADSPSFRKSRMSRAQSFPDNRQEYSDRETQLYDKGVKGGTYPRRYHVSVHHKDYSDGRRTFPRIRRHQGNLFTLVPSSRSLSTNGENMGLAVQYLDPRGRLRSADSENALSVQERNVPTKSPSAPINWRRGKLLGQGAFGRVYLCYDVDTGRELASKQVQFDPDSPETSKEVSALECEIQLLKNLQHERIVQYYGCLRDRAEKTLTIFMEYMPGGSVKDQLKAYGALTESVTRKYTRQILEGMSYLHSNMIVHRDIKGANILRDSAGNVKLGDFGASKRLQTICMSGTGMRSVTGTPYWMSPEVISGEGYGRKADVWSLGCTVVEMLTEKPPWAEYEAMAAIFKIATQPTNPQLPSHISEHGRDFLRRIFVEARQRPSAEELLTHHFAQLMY

[6] = target: Serine/threonine-protein kinase 26 (Homo sapiens, UniProt Q9P289)
Sequence of Serine/threonine-protein kinase 26 (Q9P289 whole entry): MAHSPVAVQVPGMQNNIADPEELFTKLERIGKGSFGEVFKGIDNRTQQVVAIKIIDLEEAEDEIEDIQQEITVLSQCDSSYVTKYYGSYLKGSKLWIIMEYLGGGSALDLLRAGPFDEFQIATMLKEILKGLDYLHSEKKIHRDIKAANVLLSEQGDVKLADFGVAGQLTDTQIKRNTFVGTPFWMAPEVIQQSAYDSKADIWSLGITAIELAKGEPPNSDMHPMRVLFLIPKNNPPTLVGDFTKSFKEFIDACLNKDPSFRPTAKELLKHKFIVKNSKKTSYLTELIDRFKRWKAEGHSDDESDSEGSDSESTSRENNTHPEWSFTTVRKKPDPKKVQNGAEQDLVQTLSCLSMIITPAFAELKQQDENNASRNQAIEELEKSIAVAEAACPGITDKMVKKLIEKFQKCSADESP

[7] = target: cAMP-dependent protein kinase catalytic subunit gamma (Homo sapiens, UniProt P22612)
Sequence of cAMP-dependent protein kinase catalytic subunit gamma (P22612 whole entry): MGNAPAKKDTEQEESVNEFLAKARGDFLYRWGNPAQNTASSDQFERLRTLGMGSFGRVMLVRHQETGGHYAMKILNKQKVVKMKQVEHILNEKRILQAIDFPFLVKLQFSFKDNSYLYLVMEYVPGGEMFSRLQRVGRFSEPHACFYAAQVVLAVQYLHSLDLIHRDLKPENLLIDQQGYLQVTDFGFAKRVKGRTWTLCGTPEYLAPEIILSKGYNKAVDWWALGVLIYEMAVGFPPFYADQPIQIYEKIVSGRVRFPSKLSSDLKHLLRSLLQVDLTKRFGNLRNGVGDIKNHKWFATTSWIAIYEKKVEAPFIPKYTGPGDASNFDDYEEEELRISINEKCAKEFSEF
Also: in the data inactive means no Kd found up to 30 µM.

Sequence of Protein kinase C theta type (Q04759 whole entry): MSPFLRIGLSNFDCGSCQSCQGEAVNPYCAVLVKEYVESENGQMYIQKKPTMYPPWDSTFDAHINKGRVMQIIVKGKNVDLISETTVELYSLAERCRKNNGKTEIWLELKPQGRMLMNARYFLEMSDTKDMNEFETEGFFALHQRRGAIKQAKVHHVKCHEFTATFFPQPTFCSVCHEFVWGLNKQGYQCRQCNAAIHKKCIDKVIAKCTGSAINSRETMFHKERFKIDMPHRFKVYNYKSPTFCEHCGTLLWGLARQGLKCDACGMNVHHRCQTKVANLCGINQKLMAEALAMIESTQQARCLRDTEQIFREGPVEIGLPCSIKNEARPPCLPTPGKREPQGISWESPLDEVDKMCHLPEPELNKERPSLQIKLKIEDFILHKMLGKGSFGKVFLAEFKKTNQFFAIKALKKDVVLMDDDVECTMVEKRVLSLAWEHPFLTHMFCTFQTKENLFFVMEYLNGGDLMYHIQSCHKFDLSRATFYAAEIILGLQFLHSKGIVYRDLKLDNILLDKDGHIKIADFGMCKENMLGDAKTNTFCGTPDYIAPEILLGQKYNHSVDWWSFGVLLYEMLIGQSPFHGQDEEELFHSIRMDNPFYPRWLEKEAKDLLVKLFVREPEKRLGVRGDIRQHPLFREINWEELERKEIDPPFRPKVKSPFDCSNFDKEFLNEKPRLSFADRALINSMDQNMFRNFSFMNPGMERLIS

Kd [1]	Kd [2]	Kd [3]	Kd [4]	Kd [5]	Kd [6]	Kd [7]	SMILES
> 30 µM (inactive)	> 30 µM (inactive)	> 30 µM (inactive)	> 30 µM (inactive)	> 30 µM (inactive)	> 30 µM (inactive)	> 30 µM (inactive)	C=CC(=O)N1CCC[C@H](n2c(=O)n(-c3ccc(Oc4ccccc4)cc3)c3c(N)ncnc32)C1
> 30 µM (inactive)	> 30 µM (inactive)	> 30 µM (inactive)	> 30 µM (inactive)	> 30 µM (inactive)	2.19 µM (active)		Cc1nc2cc(-c3nn(C(C)C)c4ncnc(N)c34)ccc2o1
> 30 µM (inactive)	> 30 µM (inactive)	> 30 µM (inactive)	> 30 µM (inactive)	> 30 µM (inactive)	> 30 µM (inactive)	1.99 µM (active)	Cc1nc(NC(=O)N2CCC[C@H]2C(N)=O)sc1-c1ccnc(C(C)(C)C(F)(F)F)c1 [ALPELISIB]
> 30 µM (inactive)	> 30 µM (inactive)	> 30 µM (inactive)	> 30 µM (inactive)	2.75 µM (active)	3.02 µM (active)	> 30 µM (inactive)	Cc1csc(-c2nnc(Nc3ccc(Oc4ncccc4-c4ccnc(N)n4)cc3)c3ccccc23)c1 [AMG-900]
> 30 µM (inactive)	> 30 µM (inactive)	> 30 µM (inactive)	> 30 µM (inactive)	> 30 µM (inactive)	> 30 µM (inactive)		COc1cc2ncnc(Oc3cccc(NC(=O)Nc4cc(C(C)(C)C(F)(F)F)on4)c3)c2cc1OC [CEP-32496]
> 30 µM (inactive)	> 30 µM (inactive)	> 30 µM (inactive)	> 30 µM (inactive)	> 30 µM (inactive)	> 30 µM (inactive)		Cc1nc2cc(-n3ncc(C(=O)c4cc5ccccc5[nH]4)c3N)ccc2[nH]1 [FGFR INHIBITOR DEBIO 1347]
> 30 µM (inactive)		> 30 µM (inactive)	> 30 µM (inactive)	> 30 µM (inactive)	> 30 µM (inactive)	> 30 µM (inactive)	N#CC1(c2ccc(NC(=O)c3cccnc3NCc3ccncc3)cc2)CCCC1 [RIVOCERANIB]
> 30 µM (inactive)	> 30 µM (inactive)	> 30 µM (inactive)	> 30 µM (inactive)	> 30 µM (inactive)	> 30 µM (inactive)		CO[C@H]1C[C@@H]2CC[C@@H](C)[C@@](O)(O2)C(=O)C(=O)N2CCCC[C@H]2C(=O)O[C@H]([C@H](C)C[C@@H]2CC[C@@H](O)[C@H](OC)C2)CC(=O)[C@H](C)/C=C(\C)[C@@H](O)[C@@H](OC)C(=O)[C@H](C)C[C@H](C)/C=C/C=C/C=C/1C [SIROLIMUS]
> 30 µM (inactive)	> 30 µM (inactive)	> 30 µM (inactive)	> 30 µM (inactive)	> 30 µM (inactive)	> 30 µM (inactive)		O=C(Cc1ccc(-c2ccc(OCCN3CCOCC3)cc2)cn1)NCc1ccccc1 [TIRBANIBULIN]
> 30 µM (inactive)	> 30 µM (inactive)	> 30 µM (inactive)	> 30 µM (inactive)	> 30 µM (inactive)	> 30 µM (inactive)		O=C1NC(=O)[C@@H](c2cn3c4c(cccc24)CCC3)[C@@H]1c1c[nH]c2ccccc12 [TIVANTINIB]
> 30 µM (inactive)		> 30 µM (inactive)	> 30 µM (inactive)	> 30 µM (inactive)	> 30 µM (inactive)	> 30 µM (inactive)	C[C@@H](NC(=O)c1ncnc(N)c1Cl)c1ncc(C(=O)Nc2cc(C(F)(F)F)c(Cl)cn2)s1 [TOVORAFENIB]

SMILES	Kd [1]	Kd [2]	Kd [3]	Kd [4]	Kd [5]	Kd [6]	Kd [7]
CCOc1cc2ncc(C#N)c(Nc3ccc(F)c(Cl)c3)c2cc1NC(=O)/C=C/CN(C)C [PELITINIB]	> 30 µM (inactive)		> 30 µM (inactive)	> 30 µM (inactive)	2.09 µM (active)	> 30 µM (inactive)	
CN1CCN(CCOc2cc(OC3CCOCC3)c3c(Nc4c(Cl)ccc5c4OCO5)ncnc3c2)CC1 [SARACATINIB]	> 30 µM (inactive)	> 30 µM (inactive)	> 30 µM (inactive)		> 30 µM (inactive)	> 30 µM (inactive)	> 30 µM (inactive)
